# Key:
# STAT5b SH2 domain = biological target: T1, STAT5b SH2 domain (Homo sapiens, UniProt P51692); assay: Fluorescence polarization assay, STAT5b SH2 domain; type: binding
# T1 sequence (P51692 1-787): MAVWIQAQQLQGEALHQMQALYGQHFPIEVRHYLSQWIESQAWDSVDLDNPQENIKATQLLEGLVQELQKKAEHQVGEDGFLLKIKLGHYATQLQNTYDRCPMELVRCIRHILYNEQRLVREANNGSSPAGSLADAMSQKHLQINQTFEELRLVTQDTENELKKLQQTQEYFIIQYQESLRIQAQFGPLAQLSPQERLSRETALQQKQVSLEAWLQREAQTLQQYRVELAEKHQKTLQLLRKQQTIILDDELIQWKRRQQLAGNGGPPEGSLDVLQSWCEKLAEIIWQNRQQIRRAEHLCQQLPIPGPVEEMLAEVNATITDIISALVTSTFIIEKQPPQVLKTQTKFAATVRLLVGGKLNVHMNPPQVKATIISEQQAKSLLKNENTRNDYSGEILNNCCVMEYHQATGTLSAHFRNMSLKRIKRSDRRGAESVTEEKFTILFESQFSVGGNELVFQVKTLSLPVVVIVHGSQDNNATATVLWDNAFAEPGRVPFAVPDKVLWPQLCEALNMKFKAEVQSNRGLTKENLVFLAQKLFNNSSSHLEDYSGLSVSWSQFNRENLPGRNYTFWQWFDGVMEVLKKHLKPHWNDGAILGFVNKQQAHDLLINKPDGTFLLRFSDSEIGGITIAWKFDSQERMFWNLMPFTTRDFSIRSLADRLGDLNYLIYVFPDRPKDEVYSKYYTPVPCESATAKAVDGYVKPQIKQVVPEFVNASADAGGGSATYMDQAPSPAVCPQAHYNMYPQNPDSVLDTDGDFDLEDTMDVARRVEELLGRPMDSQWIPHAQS
# STAT5a SH2 domain = biological target: T2, STAT5a SH2 domain (Homo sapiens, UniProt P42229); assay: Fluorescence polarization assay, STAT5a SH2 domain; type: binding; conditions: mean ± s.d.
# T2 sequence (P42229 1-794): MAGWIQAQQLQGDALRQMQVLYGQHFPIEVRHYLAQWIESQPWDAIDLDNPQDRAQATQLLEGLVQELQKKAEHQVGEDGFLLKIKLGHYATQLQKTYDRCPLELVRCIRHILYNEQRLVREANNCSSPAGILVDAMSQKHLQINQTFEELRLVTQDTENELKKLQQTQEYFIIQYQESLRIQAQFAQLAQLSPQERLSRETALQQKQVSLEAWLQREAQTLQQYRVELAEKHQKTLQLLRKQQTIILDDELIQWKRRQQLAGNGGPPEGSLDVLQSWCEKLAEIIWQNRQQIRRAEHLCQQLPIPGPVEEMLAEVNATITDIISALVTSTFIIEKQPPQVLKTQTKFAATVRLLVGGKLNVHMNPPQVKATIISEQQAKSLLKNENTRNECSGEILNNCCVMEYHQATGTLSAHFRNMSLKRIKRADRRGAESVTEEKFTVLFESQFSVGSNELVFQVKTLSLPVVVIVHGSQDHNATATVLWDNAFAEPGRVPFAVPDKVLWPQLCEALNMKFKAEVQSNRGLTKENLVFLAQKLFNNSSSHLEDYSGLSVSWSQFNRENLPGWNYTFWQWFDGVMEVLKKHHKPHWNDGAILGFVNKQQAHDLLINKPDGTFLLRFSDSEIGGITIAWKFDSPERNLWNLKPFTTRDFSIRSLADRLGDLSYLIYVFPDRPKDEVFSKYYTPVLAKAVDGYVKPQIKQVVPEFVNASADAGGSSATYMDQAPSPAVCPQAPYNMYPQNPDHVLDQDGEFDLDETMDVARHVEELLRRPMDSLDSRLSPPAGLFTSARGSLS
# STAT4 = biological target: T3, STAT4 (Homo sapiens, UniProt Q14765); assay: Fluorescence polarization assay, STAT4; type: binding
# T3 sequence (Q14765 1-748): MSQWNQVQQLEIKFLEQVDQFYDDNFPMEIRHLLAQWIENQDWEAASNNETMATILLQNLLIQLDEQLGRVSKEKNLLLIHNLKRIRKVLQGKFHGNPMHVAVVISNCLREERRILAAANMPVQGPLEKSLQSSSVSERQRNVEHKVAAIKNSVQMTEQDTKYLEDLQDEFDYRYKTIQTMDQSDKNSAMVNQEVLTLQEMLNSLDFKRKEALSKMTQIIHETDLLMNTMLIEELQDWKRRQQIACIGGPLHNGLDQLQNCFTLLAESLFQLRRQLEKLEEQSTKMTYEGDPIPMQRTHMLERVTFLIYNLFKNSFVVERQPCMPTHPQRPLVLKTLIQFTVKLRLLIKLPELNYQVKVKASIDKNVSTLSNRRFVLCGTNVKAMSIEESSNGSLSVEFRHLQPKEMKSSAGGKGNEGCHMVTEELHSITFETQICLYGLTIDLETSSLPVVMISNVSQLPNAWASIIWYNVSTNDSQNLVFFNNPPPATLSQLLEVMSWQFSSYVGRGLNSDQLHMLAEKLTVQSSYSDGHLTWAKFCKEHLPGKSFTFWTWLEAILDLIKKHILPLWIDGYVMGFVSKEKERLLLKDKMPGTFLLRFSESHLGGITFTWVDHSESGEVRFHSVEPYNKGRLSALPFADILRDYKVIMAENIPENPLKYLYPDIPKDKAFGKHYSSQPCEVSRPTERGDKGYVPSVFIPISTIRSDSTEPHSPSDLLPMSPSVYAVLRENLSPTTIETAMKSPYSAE
# STAT5a-GFP = assay: STAT5a Tyr694 phosphorylation in STAT5a-GFP-transfected K562 cells (Western blot); type: cell-based, human; conditions: 4 h, result in words
structure (smiles),measurement,setting,value
"O=C(COc1ccc(C(=O)Nc2ccc(Oc3ccccc3)cc2)cc1)NCc1ccc(OP(=O)(O)O)c(OP(=O)(O)O)c1 [compound 4, 4-((2-(4-((4-phenoxyphenyl)carbamoyl)phenoxy)acetamido)methyl)-1,2-phenylene bis(dihydrogen phosphate)]",fold reduced Ki value relative to 2,STAT5b SH2 domain; STAT5b Ki,5 fold
same,fold reduction in Ki value relative to 3,STAT5b SH2 domain; STAT5b Ki,more than 10 fold
same,Ki,"STAT5b SH2 domain; abstract, rounded",9 nM
same,Ki,"STAT5b SH2 domain; converted from IC50 using the published equation, mean ± s.d., n = 3",8.8 ± 0.3 nM
same,IC50,"STAT5b SH2 domain; fluorescence polarization, mean ± s.d., three independent experiments",82 ± 3 nM
same,Ki,"STAT5a SH2 domain; converted from IC50 using the published equation, n = 3",1300 ± 100 nM
same,IC50,"STAT5a SH2 domain; fluorescence polarization, three independent experiments",2700 ± 200 nM
same,IC50,STAT4,9100 ± 300 nM
same,inhibition of STAT5a phosphorylation,STAT5a-GFP,did not show significant activity
